Data reported in PubChem BioAssay AID190 (DTP/NCI, 2004).
Values joined by “and” are separate entries in the source; they are usually repeats but may differ in a detail not shown here. Equal values may be shown once. Inconclusive results and toxic doses are left out.

Test system: AKR/Lw mice, AKR lymphoma ip, median survival T/C
Experiment: NCI In Vivo Anticancer Drug Screen. Data for tumor model Lymphoma AKR (Transplanted) (intraperitoneal) in AKR/Lw mice
Details: endpoint: median survival time, higher = longer survival
Method: The antitumor activity of compounds was measured in mice bearing transplantable tumors. Survival or tumor size were measured and the results are expressed as the measurement made in the treated group (T) divided by the measurement made in the vehicle treated control group (C). The tumor model used in this assay is Lymphoma AKR (Transplanted) (intraperitoneal) in AKR/Lw mice

[1] = dose: 1.0 mg/kg/injection, schedule: Q04DX004 (ip), vehicle: saline
[2] = dose: 2.0 mg/kg/injection, schedule: Q04DX004 (ip), vehicle: saline
[3] = dose: 100.0 mg/kg/injection, schedule: Q01DX001 (ip), vehicle: Klucel (hydroxypropylcellulose) (HPC)
[4] = dose: 200.0 mg/kg/injection, schedule: Q01DX001 (ip), vehicle: Klucel (hydroxypropylcellulose) (HPC)

**Q.** How did the T/C (dose: 0.06 mg/kg/injection, schedule: Q04DX008 (ip), vehicle: saline) turn out when Nc1ncn(C2OC(CO)C(O)C2O)c(=O)n1 (stereo unspecified) was run?
**A.** 116 % of control

**Q.** What about the T/C (dose: 0.12 mg/kg/injection, schedule: Q04DX004 (ip), vehicle: saline) of the same compound?
**A.** 109 % of control

**Q.** What about the T/C (dose: 0.25 mg/kg/injection, schedule: Q04DX004 (ip), vehicle: saline) of the same compound?
**A.** 118 % of control

**Q.** And the T/C (dose: 0.38 mg/kg/injection, schedule: Q04DX003 (ip), vehicle: saline)?
**A.** 88 % of control

**Q.** And the T/C (dose: 0.5 mg/kg/injection, schedule: Q04DX008 (ip), vehicle: saline)?
**A.** 180 % of control

**Q.** And the T/C (dose: 0.75 mg/kg/injection, schedule: Q01DX009 (ip), vehicle: water)?
**A.** 240 % of control

**Q.** What about the T/C [1] of the same compound?
**A.** 152 % of control

**Q.** And the T/C (dose: 1.0 mg/kg/injection, schedule: Q04DX008 (ip), vehicle: saline)?
**A.** 155 % of control

**Q.** And the T/C (dose: 1.5 mg/kg/injection, schedule: Q01DX009 (ip), vehicle: saline)?
**A.** 92 % of control

**Q.** What about the T/C (dose: 1.5 mg/kg/injection, schedule: Q01DX009 (ip), vehicle: water) of the same compound?
**A.** 153 % of control

**Q.** And the T/C [2]?
**A.** 185 % of control

**Q.** What about the T/C (dose: 2.0 mg/kg/injection, schedule: Q04DX008 (ip), vehicle: saline) of the same compound?
**A.** 159 % of control

**Q.** What about the T/C (dose: 2.5 mg/kg/injection, schedule: Q01DX001 (ip), vehicle: saline) of the same compound?
**A.** 95 % of control and 114 % of control

**Q.** And the T/C (dose: 2.5 mg/kg/injection, schedule: Q04DX003 (ip), vehicle: saline)?
**A.** 122 % of control

**Q.** And the T/C (dose: 3.0 mg/kg/injection, schedule: Q01DX009 (ip), vehicle: water)?
**A.** 265 % of control

**Q.** What about the T/C (dose: 3.0 mg/kg/injection, schedule: Q04DX004 (ip), vehicle: saline) of the same compound?
**A.** 150 % of control and 252 % of control

**Q.** And the T/C (dose: 3.0 mg/kg/injection, schedule: Q04DX008 (ip), vehicle: saline)?
**A.** 150 % of control

**Q.** And the T/C (dose: 4.4 mg/kg/injection, schedule: Q04DX004 (ip), vehicle: saline)?
**A.** 163 % of control and 223 % of control

**Q.** And the T/C (dose: 4.4 mg/kg/injection, schedule: Q04DX008 (ip), vehicle: saline)?
**A.** 166 % of control and 180 % of control

**Q.** And the T/C (dose: 5.0 mg/kg/injection, schedule: Q04DX003 (ip), vehicle: saline)?
**A.** 124 % of control

**Q.** What about the T/C (dose: 6.0 mg/kg/injection, schedule: Q01DX001 (ip), vehicle: saline) of the same compound?
**A.** 92 % of control and 121 % of control

**Q.** And the T/C (dose: 6.0 mg/kg/injection, schedule: Q01DX009 (ip), vehicle: water)?
**A.** 96 % of control

**Q.** What about the T/C (dose: 6.25 mg/kg/injection, schedule: Q01DX001 (ip), vehicle: saline) of the same compound?
**A.** 90 % of control

**Q.** And the T/C (dose: 10.0 mg/kg/injection, schedule: Q04DX003 (ip), vehicle: saline)?
**A.** 124 % of control

**Q.** What about the T/C (dose: 10.0 mg/kg/injection, schedule: Q04DX004 (ip), vehicle: saline) of the same compound?
**A.** 163 % of control

**Q.** What about the T/C (dose: 10.0 mg/kg/injection, schedule: Q04DX008 (ip), vehicle: saline) of the same compound?
**A.** 152 % of control and 169 % of control

**Q.** What about the T/C (dose: 12.0 mg/kg/injection, schedule: Q01DX001 (ip), vehicle: saline with Tween-80) of the same compound?
**A.** 162 % of control

**Q.** And the T/C (dose: 12.0 mg/kg/injection, schedule: Q01DX001 (ip), vehicle: saline)?
**A.** 92 % of control and 121 % of control

**Q.** And the T/C (dose: 12.0 mg/kg/injection, schedule: Q04DX003 (ip), vehicle: water)?
**A.** 166 % of control

**Q.** And the T/C (dose: 12.5 mg/kg/injection, schedule: Q01DX001 (ip), vehicle: saline)?
**A.** 105 % of control and 112 % of control

**Q.** And the T/C (dose: 24.0 mg/kg/injection, schedule: Q01DX001 (ip), vehicle: saline with Tween-80)?
**A.** 178 % of control

**Q.** What about the T/C (dose: 30.0 mg/kg/injection, schedule: Q01DX001 (ip), vehicle: saline) of the same compound?
**A.** 164 % of control

**Q.** And the T/C (dose: 40.0 mg/kg/injection, schedule: Q01DX001 (ip), vehicle: saline)?
**A.** 103 % of control

**Q.** What about the T/C (dose: 48.0 mg/kg/injection, schedule: Q01DX001 (ip), vehicle: saline with Tween-80) of the same compound?
**A.** 206 % of control

**Q.** And the T/C (dose: 80.0 mg/kg/injection, schedule: Q01DX001 (ip), vehicle: saline)?
**A.** 119 % of control

**Q.** And the T/C (dose: 96.0 mg/kg/injection, schedule: Q01DX001 (ip), vehicle: saline with Tween-80)?
**A.** 375 % of control

**Q.** What about the T/C (dose: 15.0 micrograms/kg/injection, schedule: Q01DX009 (ip), vehicle: saline) of the same compound?
**A.** 113 % of control

**Q.** And the T/C (dose: 30.0 micrograms/kg/injection, schedule: Q01DX009 (ip), vehicle: saline)?
**A.** 165 % of control

**Q.** What about the T/C (dose: 60.0 micrograms/kg/injection, schedule: Q01DX009 (ip), vehicle: saline) of the same compound?
**A.** 150 % of control

**Q.** For N[C@@H](Cc1ccc(N(CCCl)CCCl)cc1)C(=O)O, which T/C (dose: 0.25 mg/kg/injection, schedule: Q04DX008 (ip), vehicle: Klucel (hydroxypropylcellulose) (HPC)) is on record?
**A.** 102 % of control

**Q.** What about the T/C (dose: 0.5 mg/kg/injection, schedule: Q04DX008 (ip), vehicle: Klucel (hydroxypropylcellulose) (HPC)) of the same compound?
**A.** 94 % of control

**Q.** What about the T/C (dose: 0.75 mg/kg/injection, schedule: Q04DX008 (ip), vehicle: Klucel (hydroxypropylcellulose) (HPC)) of the same compound?
**A.** 119 % of control

**Q.** And the T/C (dose: 1.0 mg/kg/injection, schedule: Q04DX004 (ip), vehicle: Klucel (hydroxypropylcellulose) (HPC))?
**A.** 123 % of control

**Q.** And the T/C [1]?
**A.** 115 % of control

**Q.** What about the T/C (dose: 1.0 mg/kg/injection, schedule: Q04DX008 (ip), vehicle: Klucel (hydroxypropylcellulose) (HPC)) of the same compound?
**A.** 100 % of control

**Q.** What about the T/C (dose: 2.0 mg/kg/injection, schedule: Q04DX004 (ip), vehicle: Klucel (hydroxypropylcellulose) (HPC)) of the same compound?
**A.** 158 % of control

**Q.** And the T/C [2]?
**A.** 107 % of control

**Q.** What about the T/C (dose: 2.0 mg/kg/injection, schedule: Q04DX008 (ip), vehicle: Klucel (hydroxypropylcellulose) (HPC)) of the same compound?
**A.** 116 % of control

**Q.** What about the T/C (dose: 2.5 mg/kg/injection, schedule: Q01DX001 (ip), vehicle: Klucel (hydroxypropylcellulose) (HPC)) of the same compound?
**A.** 107 % of control

**Q.** What about the T/C (dose: 3.9 mg/kg/injection, schedule: Q04DX004 (ip), vehicle: Klucel (hydroxypropylcellulose) (HPC)) of the same compound?
**A.** 179 % of control

**Q.** And the T/C (dose: 3.9 mg/kg/injection, schedule: Q04DX004 (ip), vehicle: saline)?
**A.** 307 % of control

**Q.** What about the T/C (dose: 6.0 mg/kg/injection, schedule: Q04DX004 (ip), vehicle: Klucel (hydroxypropylcellulose) (HPC)) of the same compound?
**A.** 200 % of control

**Q.** What about the T/C (dose: 6.0 mg/kg/injection, schedule: Q04DX004 (ip), vehicle: saline) of the same compound?
**A.** 164 % of control

**Q.** What about the T/C (dose: 7.7 mg/kg/injection, schedule: Q04DX008 (ip), vehicle: Klucel (hydroxypropylcellulose) (HPC)) of the same compound?
**A.** 100 % of control

**Q.** What about the T/C (dose: 9.0 mg/kg/injection, schedule: Q01DX001 (ip), vehicle: Klucel (hydroxypropylcellulose) (HPC)) of the same compound?
**A.** 150 % of control

**Q.** And the T/C (dose: 12.0 mg/kg/injection, schedule: Q01DX001 (ip), vehicle: Klucel (hydroxypropylcellulose) (HPC))?
**A.** 102 % of control

**Q.** What about the T/C (dose: 16.0 mg/kg/injection, schedule: Q01DX001 (ip), vehicle: Klucel (hydroxypropylcellulose) (HPC)) of the same compound?
**A.** 92 % of control

**Q.** Which results are given for CN(C)S(=O)(=O)Nc1cc(Cl)c(NS(=O)(=O)N(C)C)cc1Cl?
**A.** T/C [3]: 93 % of control; T/C [4]: 106 % of control; T/C (dose: 400.0 mg/kg/injection, schedule: Q01DX001 (ip), vehicle: Klucel (hydroxypropylcellulose) (HPC)): 100 % of control

**Q.** With C=CCN(CC=C)c1ccc(N(CC)CC)cc1 as the compound, how does the T/C (dose: 25.0 mg/kg/injection, schedule: Q04DX003 (ip), vehicle: Klucel (hydroxypropylcellulose) (HPC)) read?
**A.** 100 % of control

**Q.** And the T/C (dose: 50.0 mg/kg/injection, schedule: Q04DX003 (ip), vehicle: Klucel (hydroxypropylcellulose) (HPC))?
**A.** 94 % of control

**Q.** And the T/C [3]?
**A.** 96 % of control

**Q.** And the T/C (dose: 100.0 mg/kg/injection, schedule: Q04DX003 (ip), vehicle: Klucel (hydroxypropylcellulose) (HPC))?
**A.** 97 % of control

**Q.** What about the T/C [4] of the same compound?
**A.** 92 % of control

**Q.** What about the T/C (dose: 200.0 mg/kg/injection, schedule: Q04DX003 (ip), vehicle: Klucel (hydroxypropylcellulose) (HPC)) of the same compound?
**A.** 100 % of control
